Reference: patent US7507739B2, “6-[(substituted)phenyl]triazolopyrimidines as anticancer agents” (Wyeth, priority 2003, dated 2009)
Marks after values point to notes of the source that are not given here.

Tests used:
[1] = system: H157 Human Non-Small Cell Lung Carcinoma; assay: Human tumor xenograft test, H157; format: in vivo, athymic mice; settings: for T/C on day 0 / T/C on day 7 / T/C on day 11 / T/C on day 14: days 0, 6
Experimental: (§1) The ability of compounds of this invention to inhibit tumor growth in animals is studied in the athymic mouse xenograft standard pharmacological test. Female nu/nu mice in an outbred albino background are obtained from Charles River Laboratories (Wilmington, Mass.). Animals are injected subcutaneously on the flank with the desired tumor cell suspension. Several days later, mice with tumors of approximately 150 mm^3 are selected from those injected (staged) and randomly distributed into groups of 5-10. The day of staging is called day 0. Compounds of the invention, usually formulated in saline (exceptions are noted in tables), are administered to animals by intravenous injection or oral gavage on various schedules starting on day 0 or 1, as noted in the tables. The control group in each experiment is dosed with vehicle on the same schedule. Tumor size is measured every 3-7 days with calipers in two orthogonal dimensions, and tumor volume is calculated from the formula volume=[(length×width^2)/2].
(§2) Tumor/Control (T/C) is obtained by dividing the mean tumor volume of the treated group by the mean tumor volume of the control group on each measurement day. A treatment dose is defined as active if it produced a statistically significant T/C of 0.50 or less. A p value≦0.05, determined by one-side Student's t-test, is required for statistical significance. A treatment dose is defined as toxic if more than 10% of the animals died from a compound-related toxicity.

[2] = system: HT-29 Human Colon Carcinoma; assay: Human tumor xenograft test, HT-29; format: in vivo, athymic mice
Experimental: as §1, §2

SMILES: CNCCCOc1cc(F)c(-c2c(Cl)nc3ncnn3c2N[C@@H](C)C(F)(F)F)c(F)c1.Cl [Example 2a, 5-Chloro-6-{2,6-difluoro-4-[3-(methylamino)propoxy]phenyl}-N-[(1S)-2,2,2-trifluoro-1-methylethyl][1,2,4]triazolo[1,5-a]pyrimidin-7-amine hydrogen chloride]
- T/C on day 0 ([1]; H157, 7.5 mg/kg IV): 1.04
- T/C on day 7 ([1]; H157, 7.5 mg/kg IV): 0.54**
- T/C on day 11 ([1]; H157, 7.5 mg/kg IV): 0.42**
- T/C on day 14 ([1]; H157, 7.5 mg/kg IV): 0.45**
- T/C on day 0 ([1]; H157, 15 mg/kg IV): 1.02
- T/C on day 7 ([1]; H157, 15 mg/kg IV): 0.55*
- T/C on day 11 ([1]; H157, 15 mg/kg IV): 0.44*
- T/C on day 14 ([1]; H157, 15 mg/kg IV): 0.42**
- T/C on day 0 ([1]; H157, 25 mg/kg IV): 1.03
- T/C on day 7 ([1]; H157, 25 mg/kg IV): 0.62*
- T/C on day 11 ([1]; H157, 25 mg/kg IV): 0.29**
- T/C on day 14 ([1]; H157, 25 mg/kg IV): 0.30**
- tumor growth inhibition (activity call) ([1]; H157 NSCLC, 25, 15 and 7.5 mg/kg intravenously on days 0 and 6): inhibited tumor growth
- T/C on day 0 ([2]; HT-29, 25 mg/kg IV, days 1, 7): 1.00
- T/C on day 7 ([2]; HT-29, 25 mg/kg IV, days 1, 7): 0.44**
- T/C on day 10 ([2]; HT-29, 25 mg/kg IV, days 1, 7): 0.34**
- T/C on day 13 ([2]; HT-29, 25 mg/kg IV, days 1, 7): 0.26**
- T/C on day 21 ([2]; HT-29, 25 mg/kg IV, days 1, 7): 0.43**
- T/C on day 24 ([2]; HT-29, 25 mg/kg IV, days 1, 7): 0.46**
- tumor growth inhibition (activity call) ([2]; HT-29, 25 mg/kg intravenously on days 1 and 7): inhibited the growth
